Test results reported in patent US10278971B2, “Fluorocyclopentenylcytosine methods of use” (Rexahn Pharmaceuticals, Inc., priority 2015, dated 2019).

Key:
Type in all cases: cell-based, human
DNMT1 = test: DNMT enzyme activity in isolated nuclei (DNA methyltransferase assay kit); conditions: A2780 nuclear extracts, 5 μM, 24 hr
Description: (§1) DNMT1 protein expression was measured by Western Blotting after exposure to RX-3117 for 24 or 48 hr. DNMT1 RNA expression was measured by real-time PCR after 24 and 48 hr exposure to RX-3117. DNMT enzyme activity was measured in isolated nuclei after exposure 1 μM RX-3117 or 5 μM aza-CdR using a DNA methyltransferase assay kit provided by EpiGentek using the ability of a CpG dinding domain to bind to methylated DNA. In A549 cells the effect of 5 μM RX-3117 on overall methylation was measured with a specific antibody against 5-methyl-cytosine. Bands on Western blots were visualized using appropriate InfraRedDye using an Odyssey InfraRed imager.

[1] = system: overall methylation of DNA; test: Overall methylation of DNA with antibody against 5-methyl-cytosine; conditions: A549, 5 μM, 48 hr exposure
Description: as §1

PCFT = PCFT mediated transport of radiolabeled MTX; conditions: CEM cells, 24 hr; RX-3117 29.6 μM; DAC positive control
Source text: In this study, the following cell lines were used: (1) CCRF-CEM cells and its MTX resistant variant CEM-MTX, characterized by a deficiency of the reduced folate carrier (RFC) (Jansen G., et al., JBC 273 (1998) 30189-30198). The PCFT gene in CEM cells is highly methylated. (Gonen N., et al., BBRC 376 (2008) 787-92.); (2) CEM cells cultured in RPMI medium with 10% fetal bovine serum (FBS); and (3) A549 and SW1573 non-small cell lung cancer (NSCLC) and A2780 ovarian cancer cell lines cultured in DMEM medium with 10% FBS.
MTX transport was measured using radiolabeled MTX in CEM wild type and CEM-MTX cell lines. CEM cells have a high RFC activity. CEM-MTX are completely deficient in RFC-mediated transport. CEM cells have a highly methylated PCFT transporter and a very low PCFT mediated transport (Gonen N., et al., BBRC 376 (2008) 787-92). MTX transport at pH 7.4 is predominantly RFC mediated and less than 2% by PCFT. Folic acid was used to inhibit PCFT mediated transport. […] CEM and CEM-MTX cells were exposed to 29.6 μM RX-3117 and to 0, 19 μM aza-CdR as a positive control. MTX transport was measured after 24 hr to the drugs in a 3 minutes uptake assay using 2 μM [3′,5,′7-3H]-MTX.

## Nc1ncn([C@H]2C[C@H](O)[C@@H](CO)O2)c(=O)n1 [DAC, 5-aza-2′-deoxycytidine, reference compound]
DNMT1
  inhibition of DNMT1 activity: 31%
[1]
  decrease of overall methylation of DNA: 9%
PCFT
  increase of PCFT mediated transport of MTX: 4 fold
